# Records with an inconclusive call do not appear.
# Test system: H4 cells, SNCA 5'UTR luciferase reporter translation
# Experiment: alpha-synuclein stem-loop luciferase translation blockers – luminescence, confirmation (AID 1988)
row,Structure (SMILES),EC50 [µM]
1,C#CCOCCOCCOCCNc1nc(N2CCN(C(=O)CCCCCCCCCCNC(=O)[C@H](CO)n3cc(CCCSC)nn3)CC2)nc(N2CCN(C(=O)CCCCCCCCCCNC(=O)[C@H](CCCCN)n3cc(C[C@@H](C)CC)nn3)CC2)n1,7.11
2,COc1ccc(O)c2c(=O)c3c(OC)cc4c(c3oc12)C1C=COC1O4 (stereo not drawn),< 0.1
3,C=C(C=O)CC1CC(O)[C@]2(C)OC3CC4OC5C[C@]6(C)O[C@]7(C)CCC8OC9C[C@]%10(C)OC%11C(C)=CC(=O)OC%11CC%10OC9C[C@@H](C)C8OC7CC6O[C@]5(C)CC5OC5C4OC3CC2O1 (stereo partly drawn),7.35

# Source: PubChem BioAssay AID1988 (Broad Institute, 2009)
